The target of test [1] is T1, RARα (Homo sapiens, UniProt P10276).
T1 sequence (P10276 183-417 limits assumed): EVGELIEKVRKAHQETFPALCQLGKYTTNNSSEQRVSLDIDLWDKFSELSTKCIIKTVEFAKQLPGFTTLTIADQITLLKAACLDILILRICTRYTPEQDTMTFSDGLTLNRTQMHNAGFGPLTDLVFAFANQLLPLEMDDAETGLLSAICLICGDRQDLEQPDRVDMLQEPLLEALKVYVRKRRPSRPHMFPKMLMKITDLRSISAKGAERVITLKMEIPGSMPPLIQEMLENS
Briefly: chimeric receptor transactivation assay, RARα. It counts as cell-based. As to conditions: for EC50: chimeric receptor transactivation, read-out: RAR Trans. EC50 α; for Emax: percentage compared to the standard compound, read-out: RAR Trans. efficacy (number in parentheses) α. An excerpt: Specifically, one such assay is a chimeric receptor transactivation assay which tests for agonist-like activity in the R RAPE and RAR7 receptor subtypes, and which is based on work published by Feigner, P. L. and Holm, M (1989) Focus, 112 is described in detail in U.S. Pat. No. 5,455,265. The specification of U.S. Pat. No. 5,455,265 is hereby expressly incorporated by reference. A holoreceptor transactivation assay and a ligand binding assay which measure the antagonist/agonist like activity of the compounds of the invention, or their ability to bind to the several retinoid receptor subtypes, respectively, are described in published PCT Application No. WO WO93/11755 (particularly on pages 30-33 and 37-41) published on Jun. 24, 1993, the specification of which is also incorporated herein by reference. A detailed experimental procedure for holoreceptor transactivations has been described by Heyman et al. Cell 68, 397-406, (1992); Allegretto et al. J. Biol. Chem. 268, 26625-26633, and Mangelsdorf et al. The Retinoids: Biology, Chemistry and Medicine, pp 319-349, Raven Press Ltd., New York, which are expressly incorporated herein by reference. The results obtained in this assay are expressed in EC50 numbers, as they are also in the chimeric receptor transactivation assay. The results of the ligand binding assay are expressed in Ki numbers. (See Cheng et al. Biochemical Pharmacology Vol. 22 pp 3099-3108, expressly incorporated herein by reference.)
Efficacy in a transactivation assay is expressed as a percentage of the maximum potency attained by the compound compared to a standard which, in this case, is the compound named (2E,4E,1′S,2′S)-3-methyl-5-[2′-methyl-2′-(5,5,8,8-tetramethyl-5,6,7,8-tetrahydro-naphthalen-2-yl)-cyclopropyl]-penta-2,4-dienoic acid. This standard compound is described in U.S. Pat. No. 6,114,533.
The specification of this application for patent is organized in several sections in accordance with structural Formulas A through F each of which discloses a group of preferred compounds within the scope of the invention. Tables that disclose the activity of certain exemplary compounds of the invention in the above-described RXR receptor transactivation and binding assays are found in the corresponding sections. […] The transactivation data pertaining to the activation of RXR receptors were obtained in the holoreceptor assay.
Generally speaking, in the tables disclosing the results of transactivation and binding assays the numbers in parentheses indicate efficacy as a percentage compared to the standard compound, (2E,4E,1′S,2′S)-3-methyl-5-[2′-methyl-2′-(5,5,8,8-tetramethyl-5,6,7,8-tetrahydro-naphthalen-2-yl)cyclopropyl]-penta-2,4-dienoic acid and the other numbers indicate the measured EC50 and K; in nanomolar concentration.

Test [2] deals with T2, RXRα (Homo sapiens, UniProt P19793).
T2 construct: expressed in transfected cells
T2 sequence (P19793 1-462): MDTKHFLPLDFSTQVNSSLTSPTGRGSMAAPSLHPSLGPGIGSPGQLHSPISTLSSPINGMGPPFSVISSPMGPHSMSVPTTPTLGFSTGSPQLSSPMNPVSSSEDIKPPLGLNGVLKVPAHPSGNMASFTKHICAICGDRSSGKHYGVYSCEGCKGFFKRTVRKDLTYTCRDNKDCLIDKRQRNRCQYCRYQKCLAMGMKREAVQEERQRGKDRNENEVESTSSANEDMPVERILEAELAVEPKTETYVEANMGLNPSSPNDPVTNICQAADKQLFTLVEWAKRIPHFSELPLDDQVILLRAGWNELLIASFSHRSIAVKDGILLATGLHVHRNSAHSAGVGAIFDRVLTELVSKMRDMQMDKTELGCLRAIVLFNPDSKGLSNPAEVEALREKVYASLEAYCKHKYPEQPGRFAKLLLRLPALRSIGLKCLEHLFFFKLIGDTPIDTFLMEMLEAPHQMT
Briefly: holoreceptor transactivation assay, RXRα. The class given is cell-based. As to conditions: for EC50: holoreceptor transactivation, read-out: RXR Trans. EC50 α; for Emax: percentage compared to the standard compound, read-out: RXR Trans. efficacy (number in parentheses) α. An outline of the steps:
(§1)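 Cells carrying either full-length RXR (holoreceptor) or chimeric RAR receptors were exposed to compound and reporter transactivation recorded. Potency was expressed as EC50 in nanomolar. Efficacy was expressed as percent of the maximal response of a reference cyclopropyl-tetramethyltetrahydronaphthalene penta-2,4-dienoic acid.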

The target in the next test is T3, RXRγ (UniProt P28705).
T3 sequence (P28705 1-463): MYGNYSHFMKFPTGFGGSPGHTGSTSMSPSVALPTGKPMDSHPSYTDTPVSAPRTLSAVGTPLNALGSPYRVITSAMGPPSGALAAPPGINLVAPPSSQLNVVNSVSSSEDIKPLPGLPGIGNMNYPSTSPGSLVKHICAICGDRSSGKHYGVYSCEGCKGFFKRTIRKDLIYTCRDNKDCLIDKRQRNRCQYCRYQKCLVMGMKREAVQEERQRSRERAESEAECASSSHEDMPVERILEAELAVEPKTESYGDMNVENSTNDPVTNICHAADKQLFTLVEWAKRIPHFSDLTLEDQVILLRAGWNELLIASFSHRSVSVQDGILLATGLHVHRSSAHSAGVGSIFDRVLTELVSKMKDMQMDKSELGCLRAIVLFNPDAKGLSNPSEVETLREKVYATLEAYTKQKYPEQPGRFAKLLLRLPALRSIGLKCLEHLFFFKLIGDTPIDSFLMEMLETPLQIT
Briefly: holoreceptor transactivation assay, RXRγ. The class given is cell-based. The settings on record: for EC50: holoreceptor transactivation, read-out: RXR Trans. EC50 γ; for RXR Trans. efficacy (number in parentheses) γ: percentage compared to the standard compound. In short, it runs like this: as §1

Test [3] concerns the target T4, RARα (Homo sapiens, UniProt P10276).
T4 sequence (P10276 1-462): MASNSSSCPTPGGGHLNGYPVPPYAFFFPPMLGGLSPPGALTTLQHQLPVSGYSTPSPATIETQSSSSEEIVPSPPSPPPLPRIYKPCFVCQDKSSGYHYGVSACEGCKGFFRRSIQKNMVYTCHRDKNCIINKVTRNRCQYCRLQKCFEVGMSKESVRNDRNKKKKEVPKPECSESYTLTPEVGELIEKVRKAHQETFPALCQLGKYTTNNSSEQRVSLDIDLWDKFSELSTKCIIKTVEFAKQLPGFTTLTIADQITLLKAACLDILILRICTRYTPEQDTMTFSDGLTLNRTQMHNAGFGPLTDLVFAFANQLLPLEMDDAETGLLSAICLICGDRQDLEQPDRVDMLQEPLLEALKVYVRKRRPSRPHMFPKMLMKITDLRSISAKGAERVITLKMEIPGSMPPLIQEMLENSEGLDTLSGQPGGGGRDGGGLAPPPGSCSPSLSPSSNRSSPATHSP
Nature of the test: ligand binding assay, RARα. As to conditions: for Ki: read-out: RAR Bind. Ki α. An outline of the steps: (§2)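 Binding of compounds to several retinoid receptor subtypes was measured. Results are given as Ki values in nanomolar concentration, derived per Cheng et al.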

Test [4] addresses T2, RXRα. Nature of the test: ligand binding assay, RXRα. The settings on record: for Ki: read-out: RXR Bind Ki α. An outline of the steps: as §2

The structures appear in SMILES notation.

Broadly, the EC50 is the concentration giving half of the maximal effect. As a reminder, the Ki is a dissociation constant, usually derived from enzyme kinetics or from competition with a known ligand. Regarding `COc1cc2c(cc1\C(C)=C/C=C/C(C)=C/C(=O)O)C(C(C)C)=CC(C)(C)O2` [Compound 43, 7-(4-Isopropyl-7-methoxy-2,2-dimethyl-2H-chromen-6-yl)-3-methyl-octa-2E,4E,6Z-trienoic acid], the results for the EC50 on RARα [1], on RXRα [2] and on RXRγ were 13 nM, 2 nM and 3 nM, respectively. Further, the Emax at RARα [1] was 5%; at RXRα [2], 89%. Also, the “RXR Trans. efficacy (number in parentheses) γ” value (“RXR Trans. efficacy” for short) on RXRγ is recorded as 95%. Also, the Ki was 243 nM on RARα [3] and 6 nM at RXRα [4].
Take `CC/C(=C(F)/C=C/C(C)=C/C(=O)O)c1cc2c(cc1OC)OC(C)(C)C=C2C(C)C` [Compound 130, 6-Fluoro-7-(4-isopropyl-7-methoxy-2,2-dimethyl-2H-chromen-6-yl)-3-methyl-nona-2E,4E,6E-trienoic acid]: the EC50 came out at 218 nM on RARα [1], 0.5 nM at RXRα [2] and 0.6 nM on RXRγ. Moreover, the Emax amounted to 8% at RARα [1] and 80% on RXRα [2]. In addition, the “RXR Trans. efficacy” value at RXRγ was 86%. Also, the Ki stood at 133 nM at RARα [3] and 3 nM at RXRα [4].
In the case of `CCOc1cc2c(cc1\C(C)=C(F)/C=C/C(C)=C/C(=O)O)C(c1ccccc1)=CC(C)(C)O2` [Compound 127, (2E,4E,6E)-7-(7-Ethoxy-2,2-dimethyl-4-phenyl-2H-chromen-6-yl)-6-fluoro-3-methyl-octa-2,4,6-trienoic acid], the EC50 on RARα [1] came out at 245 nM. Moreover, the Emax at RARα [1] amounted to 26%. Also, the values for the Ki at RARα [3] and on RXRα [4] were 3700 nM and 97 nM, respectively.
Consider `CC/C(=C(F)/C=C/C(C)=C/C(=O)O)c1cc2c(cc1OC)OC(C)(C)C=C2C` [Compound 129, 6-Fluoro-7-(7-methoxy-2,2,4-trimethyl-2H-chromen-6-yl)-3-methyl-nona-2E,4E,6E-trienoic acid], for which the EC50 at RARα [1] was above 10000 nM; at RXRα [2], 44 nM; on RXRγ it was 53 nM. Moreover, the Emax on RXRα [2] was determined as 99%. The “RXR Trans. efficacy” value on RXRγ stood at 108%. Moreover, the Ki at RARα [3] was determined as 177 nM; at RXRα [4], 69 nM.
A word on the Kd: it is a measure of binding affinity in units of concentration. On to `CCOc1c(\C(CC)=C(F)/C=C/C(C)=C/C(=O)O)cc2c(c1Cl)C(C)(C)CC=C2C(C)C` [Compound A-178, (2E,4E,6E)-7-(4-Chloro-3-ethoxy-8-isopropyl-5,5-dimethyl-5,6-dihydronaphthalen-2-yl)-6-fluoro-3-methyl-nona-2,4,6-trienoic acid], for which the EC50 at RARα [1] came to 1 nM; at RXRα [2], 0.1 nM; at RXRγ, 0.3 nM. The Emax at RARα [1] was 8%; on RXRα [2] it was 43%. The “RXR Trans. efficacy” value at RXRγ amounted to 46%. In addition, the Kd at RARα [3] (Table 9 (Formula F), read-out: RAR α Kd) turned out to be 9.9 nM; at RXRα [4] (Table 9 (Formula F), read-out: RXR α Kd), 1 nM.
For `CCCOc1cc2c(cc1\C(C)=C(F)/C=C/C(C)=C/C(=O)O)C(c1ccccc1)=CC(C)(C)O2` [Compound 128, (2E,4E,6E)-7-(2,2-Dimethyl-4-phenyl-7-propoxy-2H-chromen-6-yl)-6-fluoro-3-methyl-octa-2,4,6-trienoic acid], at RARα [1], the EC50 was 14 nM and the Emax stood at 25%. The Ki at RARα [3] was determined as 302 nM. Moreover, the Ki on RXRα [4] was 53 nM.
On to `CCOc1cc2c(cc1\C(C)=C/C=C/C(C)=C/C(=O)O)C(CC)=CC(C)(C)O2` [Compound 45, 7-(7-Ethoxy-4-ethyl-2,2-dimethyl-2H-chromen-6-yl)-3-methyl-octa-2E,4E,6Z-trienoic acid], for which the EC50 on RARα [1] was 121 nM; at RXRα [2], 78 nM. Moreover, the Emax was 6% at RARα [1] and 5% at RXRα [2]. Besides, the Ki on RARα [3] turned out to be 3 nM; on RXRα [4], 52 nM.
In the case of `CCOc1c(\C(C)=C(F)/C=C/C(C)=C/C(=O)O)cc2c(c1Cl)OC(C)(C)C=C2C(C)C` [Compound 172, 7-(8-Chloro-4-isopropyl-7-ethoxy-2,2-dimethyl-2H-chromen-6-yl)-6-fluoro-3-methyl-octa-2E,4E,6E-trienoic acid], on RXRα [2], the EC50 turned out to be 5.4 nM and the Emax amounted to 52%. At RXRγ, the EC50 was determined as 10 nM and the “RXR Trans. efficacy” value came to 46%. Besides, the Ki on RARα [3] came to 404 nM. Also, the Ki at RXRα [4] was 10 nM.
`CCOc1cc2c(cc1\C(C)=C(F)/C=C/C(C)=C/C(=O)O)C(C)=CCC2(C)C`: on RXRα [2], the EC50 was determined as 3 nM and the Emax stood at 62%. On RXRγ, the EC50 stood at 3 nM and the “RXR Trans. efficacy” value is 70%. Further, at RARα [3], the Ki turned out to be 261 nM. Further, the Ki on RXRα [4] came to 2 nM.
In the case of `CCOc1cc2c(cc1\C(=C/C=C/C(C)=C/C(=O)O)CC)C(C(C)(C)C)=CCC2(C)C` [Compound A-18, 7-(8-tert-butyl-3-ethyoxy-5,5-dimethyl-5,6-dihydronaphthalen-2-yl)-3-methyl-nona-2E,4E,6Z-trienoic acid], the EC50 on RXRα [2] was 2.6 nM; at RXRγ, 2.7 nM. In addition, the Emax at RXRα [2] worked out at 18%. Besides, the “RXR Trans. efficacy” value at RXRγ was found to be 11%. Also, the Ki at RARα [3] was determined as 442 nM; on RXRα [4], 5 nM.

For the origin of these results see US6887896B1, “7-[(7-Alkoxy)-chrom-3-en-6-yl]-heptatrienoic acid and 7-[(3-alkoxy)-5,6-dihydronaphthalen-2-yl]-heptatrienoic acid derivatives having serum glucose reducing activity” (Allergan, Inc., priority 2003, dated 2005).
